Test results published in patent publication US20250276982A1, “KRAS INHIBITORS” (ASCENTAGE PHARMA (SUZHOU) CO., LTD., priority 2021, published 2025).

What was measured:
Type in all cases: cell-based
GP2d cells = test: Cellular proliferation assay in GP2d cells (CellTiterGlo luminescent cell viability assay); settings: 72 hours treatment, CellTiter-Glo
Protocol: Example 32: Cellular Proliferation Assay in GP2d Cells
The inhibitory effect of test compounds on cellular proliferation was determined using CellTiterGlo® luminescent cell viability assay (Promega) following manufacturer's instruction.
GP2d cells (ECACC #95090715) were cultured in DMEM medium supplemented with 10% fetal bovine serum, 10 U/ml penicillin and 10 ug/ml streptomycin. Cells were plated in 96-well plates at a density of 2000 cells/well and allowed attach for […]. Then the cells were treated with various concentrations of test compounds for 72 hours. CellTiter-Glo® Reagent was added to wells and incubated for 10 minutes at room temperature. The plates were read on GloMax® 96 Microplate Luminometer or compatible microplate readers. The percentage of cellular viability was calculated as: […]

[1] = system: phosphorylation of ERK1/2 in AGS cells with KRAS-G12D mutation; test: Detection of phosphorylation of ERK1/2 in AGS cells (AlphaLISA SureFire Ultra p-ERK 1/2 (Thr202/Tyr204) assay); settings: Homo sapiens, 3 hours, AlphaLISA p-ERK 1/2 (Thr202/Tyr204)
Protocol: Example 33: Detection of Phosphorylation of ERK1/2 in AGS Cells
The inhibitory effect of test compounds on phosphorylation of ERK1/2 were determined using the AlphaLISA® SureFire® Ultra™ p-ERK 1/2 (Thr202/Tyr204) assay following the manufacturer's instructions (ALSU-PERK-A500, PerkinElmer Inc.).
AGS cells (ATCC CRL-1739) with KRAS-G12D mutation were cultured in DMEM medium supplemented with 10% fetal bovine serum, 10 U/ml penicillin and 10 μg/ml streptomycin. Cells were plated in 96-well plates at a density of 4000 cells/well. After 16-18 hours incubation, various concentrations of compounds were added to cells with a final concentration of 0.2% DMSO. After 3 hours, the medium was removed, and the cells were lysed in 50 uL lysis buffer. 10 uL of lysate was transferred to a half area 96-well plate, 5 ul of acceptor mix was added to wells and incubated at room temperature for 1 hour, then 5 ul of donor mix was added to wells. After 1 hour incubation at room temperature, the plate was read on an Alpha Technology-compatible plate reader, using standard AlphaLISA settings. The assays were carried out in duplicates.

p-ERK in AGS cells = test: p-ERK assay in AGS cells (fixed cells, anti-p-ERK / β-Actin antibodies, IR imaging); settings: Homo sapiens, 3 h at 37° C., p-ERK detected by antibody with β-Actin, IR fluorescence
Protocol: The expression of p-ERK was detected in this assay. At first, the AGS cells (40000 cells/well) were seeded in 96-well plate culture overnight and treated with KRAS-G12D compounds inhibitors at concentrations of 1, 0.33, 0.11, 0.03, 0.01, 0.004, 0.001, 0.0004, 0.0001 μM for 3 h at 37° C. Then, add an equal volume (100 μL) of 8% paraformaldehyde solution to fix and crosslink the cells to the microplate for 15 minutes. Add 100 μL of 1× permeabilization solution to wells for 30 min and add 100 μL of 1× blocking solution for 2 h. Wash with PBS 3 times after each reaction. At last, Incubation with primary antibody (Anti-mouse β-Actin and Anti-rabbit p-ERK) and secondary antibody (Goat anti-Mouse IgG H&L IRDye 800CW and Goat anti-Rabbit IgG H&L IRDye 680RW) for 2 h, As appropriate, image the microplate with an IR scanner or develop the HRP labeled microplate and read it with a spectrophotometer. The fluorescence signal was monitored using a microplate reader (Azure biosystems, Sapphire biomolecular imager) using excitation and emission wavelengths of 680 and 800 nm, respectively. Export data. The inhibitor dose-reponse curves were analyzed using normalized IC50 regression curve fitting with control based normalization.

SMILES	IC50 (GP2d cells) [nM]	IC50 [1] [nM]	IC50 (p-ERK in AGS cells) [nM]
Oc1cc(-c2ncc3c(N4C[C@H]5CC[C@@H](C4)N5)nc(OC[C@@]45CCCN4C[C@H](F)C5)nc3c2F)c2c(ccc3ccoc32)c1 [Example 1, 9-(4-((1R,5S)-3,8-diazabicyclo[3.2.1]octan-3-yl)-8-fluoro-2-(((2R,7aS)-2-fluorotetrahydro-1H-pyrrolizin-7a(5H)-yl)methoxy)pyrido[4,3-d]pyrimidin-7-yl)naphtho[1,2-b]furan-7-ol]	680	408	107
Oc1cc(-c2ncc3c(N4C[C@H]5CC[C@@H](C4)N5)nc(OC[C@@]45CCCN4C[C@H](F)C5)nc3c2F)c2c3c(ccc2c1)OCC3 [Example 6, 9-(4-((1R,5S)-3,8-diazabicyclo[3.2.1]octan-3-yl)-8-fluoro-2-(((2R,7aS)-2-fluorotetrahydro-1H-pyrrolizin-7a(5H)-yl)methoxy)pyrido[4,3-d]pyrimidin-7-yl)-1,2-dihydronaphtho[2,1-b]furan-7-ol]	9290	–	588
Oc1cc(-c2ncc3c(N4C[C@H]5CC[C@@H](C4)N5)nc(OC[C@@]45CCCN4C[C@H](F)C5)nc3c2F)c2c3c(ccc2c1)CCC3 [Example 2, 9-(4-((1R,5S)-3,8-diazabicyclo[3.2.1]octan-3-yl)-8-fluoro-2-(((2R,7aS)-2-fluorotetrahydro-1H-pyrrolizin-7a(5H)-yl)methoxy)pyrido[4,3-d]pyrimidin-7-yl)-2,3-dihydro-1H-cyclopenta[a]naphthalen-7-ol]	130	78	11
C[C@@H]1COCCN1CC1(COc2nc(N3C[C@H]4CC[C@@H](C3)N4)c3ccc(-c4cc(O)cc5ccc6c(c45)CCC6)c(F)c3n2)CC1 [Example 25, 9-(4-((1R,5S)-3,8-diazabicyclo[3.2.1]octan-3-yl)-8-fluoro-2-((1-(((R)-3-methylmorpholino)methyl)cyclopropyl)methoxy)quinazolin-7-yl)-2,3-dihydro-1H-cyclopenta[a]naphthalen-7-ol]	303	–	18
Oc1cc(-c2ncc3c(N4C[C@H]5CC[C@@H](C4)N5)nc(OC[C@@]45CCCN4C[C@H](F)C5)nc3c2F)c2c(c1)c(Cl)c1n2CCC1 [Example 20, 5-(4-((1R,5S)-3,8-diazabicyclo[3.2.1]octan-3-yl)-8-fluoro-2-(((2R,7aS)-2-fluorotetrahydro-1H-pyrrolizin-7a(5H)-yl)methoxy)pyrido[4,3-d]pyrimidin-7-yl)-9-chloro-2,3-dihydro-1H-pyrrolo[1,2-a]indol-7-ol]	2410	–	226
C[C@@H]1COCCN1CC1(COc2nc(N3C[C@H]4CC[C@@H](C3)N4)c3cnc(-c4cc(O)cc5ccc6c(c45)CCC6)c(F)c3n2)CC1 [Example 11, 9-(4-((1R,5S)-3,8-diazabicyclo[3.2.1]octan-3-yl)-8-fluoro-2-((1-(((R)-3-methylmorpholino)methyl)cyclopropyl)methoxy)pyrido[4,3-d]pyrimidin-7-yl)-2,3-dihydro-1H-cyclopenta[a]naphthalen-7-ol]	169	–	135
O=C1CCc2ccc3cc(O)cc(-c4ncc5c(N6C[C@H]7CC[C@@H](C6)N7)nc(OC[C@@]67CCCN6C[C@H](F)C7)nc5c4F)c3c21 [Example 17, 9-(4-((1R,5S)-3,8-diazabicyclo[3.2.1]octan-3-yl)-8-fluoro-2-(((2R,7aS)-2-fluorotetrahydro-1H-pyrrolizin-7a(5H)-yl)methoxy)pyrido[4,3-d]pyrimidin-7-yl)-7-hydroxy-2,3-dihydro-1H-cyclopenta[a]naphthalen-1-one]	16000	–	272
Oc1cc(-c2c(F)cc3c(N4C[C@H]5CC[C@@H](C4)N5)nc(OCC4(CN5CCOCC5)CC4)nc3c2F)c2c3c(ccc2c1)CCC3 [Example 29, 9-(4-((1R,5S)-3,8-diazabicyclo[3.2.1]octan-3-yl)-6,8-difluoro-2-((1-(morpholinomethyl)cyclopropyl)methoxy)quinazolin-7-yl)-2,3-dihydro-1H-cyclopenta[a]naphthalen-7-ol]	273	–	44
Oc1cc(-c2ncc3c(N4C[C@H]5CC[C@@H](C4)N5)nc(OC[C@@]45CCCN4C[C@H](F)C5)nc3c2F)c2c3c(ccc2c1)COC3 [Example 21, 9-(4-((1R,5S)-3,8-diazabicyclo[3.2.1]octan-3-yl)-8-fluoro-2-(((2R,7aS)-2-fluorotetrahydro-1H-pyrrolizin-7a(5H)-yl)methoxy)pyrido[4,3-d]pyrimidin-7-yl)-1,3-dihydronaphtho[1,2-c]furan-7-ol]	263	–	52
CC1(O)CCCN(c2nc(OCC34CCCN3C[C@H](F)C4)nc3c(F)c(-c4cc(O)cc5ccc6c(c45)CCC6)ncc23)C1 (stereo partly drawn) [Example 13, 1-(8-fluoro-2-(((2R)-2-fluorotetrahydro-1H-pyrrolizin-7a(5H)-yl)methoxy)-7-(7-hydroxy-2,3-dihydro-1H-cyclopenta[a]naphthalen-9-yl)pyrido[4,3-d]pyrimidin-4-yl)-3-methylpiperidin-3-ol]	10	–	22
Fc1c(-c2cccc3ccc4occc4c23)ncc2c(N3C[C@H]4CC[C@@H](C3)N4)nc(OC[C@@]34CCCN3C[C@H](F)C4)nc12 [Example 4, 4-((1R,5S)-3,8-diazabicyclo[3.2.1]octan-3-yl)-8-fluoro-2-(((2R,7aS)-2-fluorotetrahydro-1H-pyrrolizin-7a(5H)-yl)methoxy)-7-(naphtho[2,1-b]furan-9-yl)pyrido[4,3-d]pyrimidine]	4750	–	4900
C[C@@H](COc1nc(N2C[C@H]3CC[C@@H](C2)N3)c2cnc(-c3cc(O)cc4ccc5c(c34)CCC5)c(F)c2n1)CN1C2CCC1COC2 [Example 12, 9-(2-((2R)-3-(3-oxa-8-azabicyclo[3.2.1]octan-8-yl)-2-methylpropoxy)-4-((1R,5S)-3,8-diazabicyclo[3.2.1]octan-3-yl)-8-fluoropyrido[4,3-d]pyrimidin-7-yl)-2,3-dihydro-1H-cyclopenta[a]naphthalen-7-ol]	48.4	–	17
Oc1cc(-c2ncc3c(N4CC5CCC4CN5)nc(OC[C@@]45CCCN4C[C@H](F)C5)nc3c2F)c2c3c(ccc2c1)CCC3 (stereo partly drawn) [Example 7, 9-(4-(2,5-diazabicyclo[2.2.2]octan-2-yl)-8-fluoro-2-(((2R,7aS)-2-fluorotetrahydro-1H-pyrrolizin-7a(5H)-yl)methoxy)pyrido[4,3-d]pyrimidin-7-yl)-2,3-dihydro-1H-cyclopenta[a]naphthalen-7-ol]	920	–	149
